What was measured:
Assay type in all cases: binding
[1] = target: T1, BRD4(2) (Homo sapiens, UniProt O60885); test: BROMOscan Kd determination BRD4(2)
T1 construct: T7 phage strains displaying bromodomains were grown; host or cells: T7 phage in E. coli derived from BL21
Description: (§1) Bromodomain profiling was carried out on the basis of BROMOscan™. This platform accounted for the indirect determination of the dissociation constants between 19 bromodomains and the compound of formula (13), by binding competition against a reference immobilized ligand. Compounds that bind the bromodomain prevent its binding to the immobilized ligand thus reducing the amount of protein captured. […] Hits are identified by measuring the amount of bromodomain captured in test versus control samples. Bromodomain assays for Kd determination: T7 phage strains displaying bromodomains were grown in parallel in 24-well blocks in an E. coli host derived from the BL21 strain. E. coli were grown to log-phase and infected with T7 phage from a frozen stock (multiplicity of infection=0.4) and incubated with shaking at 32° C. until lysis (90-150 minutes). The lysates were centrifuged (5,000×g) and filtered (0.2 μm) to remove cell debris. […] Kds were determined using an 11-point 3-fold compound dilution series with one DMSO control point. […] The bromodomain concentration in the eluates was measured by qPCR. […] Most Kds were determined using a compound top concentration=10,000 nM. […] Binding Constants (Kds): Binding constants (Kds) were calculated with a standard dose-response curve using the Hill equation: The Hill Slope was set to −1. […]

[2] = target: T2, BRD2(1) (Homo sapiens, UniProt P25440); test: BROMOscan Kd determination BRD2(1)
T2 construct: T7 phage strains displaying bromodomains were grown in parallel; made in house; host or cells: T7 phage grown in an E. coli host derived from the BL21 strain
T2 sequence (P25440 74-180 limits assumed): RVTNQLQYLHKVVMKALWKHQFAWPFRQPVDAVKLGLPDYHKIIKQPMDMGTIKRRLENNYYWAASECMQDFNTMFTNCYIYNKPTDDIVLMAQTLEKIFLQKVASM
Description: as §1

[3] = target: T3, BRD3(2) (Homo sapiens, UniProt Q15059); test: BROMOscan Kd determination BRD3(2)
T3 construct: T7 phage strains displaying bromodomains were grown in parallel; made in house; host or cells: T7 phage grown in an E. coli host derived from the BL21 strain
T3 sequence (Q15059 306-415 limits assumed): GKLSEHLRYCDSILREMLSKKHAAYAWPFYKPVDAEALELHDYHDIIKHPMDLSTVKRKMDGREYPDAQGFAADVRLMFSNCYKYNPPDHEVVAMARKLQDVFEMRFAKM
Description: as §1

[4] = target: T4, BRD3(1) (Homo sapiens, UniProt Q15059); test: BROMOscan Kd determination BRD3(1)
T4 construct: T7 phage strains displaying bromodomains were grown in parallel; made in house; host or cells: T7 phage grown in an E. coli host derived from the BL21 strain
T4 sequence (Q15059 34-140 limits assumed): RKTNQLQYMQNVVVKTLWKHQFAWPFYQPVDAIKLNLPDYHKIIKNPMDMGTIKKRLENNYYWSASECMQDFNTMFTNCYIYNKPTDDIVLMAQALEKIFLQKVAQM
Description: as §1

[5] = target: T5, BRDT(2) (Homo sapiens, UniProt Q58F21); test: BROMOscan Kd determination BRDT(2)
T5 construct: T7 phage strains displaying bromodomains were grown; host or cells: T7 phage in E. coli derived from BL21
Description: as §1

[6] = tested on: bromodomains; test: Bromodomain profiling (BROMOscan), summary over the panel; settings: compared to the compound of formula (23); bromodomains of Table 3
Description: Bromodomain profiling was carried out on the basis of BROMOscan™. This platform accounted for the indirect determination of the dissociation constants between 19 bromodomains and the compound of formula (13), by binding competition against a reference immobilized ligand.
Compounds that bind the bromodomain prevent its binding to the immobilized ligand thus reducing the amount of protein captured. […] Hits are identified by measuring the amount of bromodomain captured in test versus control samples.
Bromodomain assays for Kd determination: T7 phage strains displaying bromodomains were grown in parallel in 24-well blocks in an E. coli host derived from the BL21 strain. E. coli were grown to log-phase and infected with T7 phage from a frozen stock (multiplicity of infection=0.4) and incubated with shaking at 32° C. until lysis (90-150 minutes). The lysates were centrifuged (5,000×g) and filtered (0.2 μm) to remove cell debris. […] Kds were determined using an 11-point 3-fold compound dilution series with one DMSO control point. […] The bromodomain concentration in the eluates was measured by qPCR.
Bromodomain assays for % Ctrl determination: T7 phage strains displaying bromodomains were grown in parallel in 24-well blocks in an E. coli host derived from the BL21 strain. […] The bromodomain concentration in the eluates was measured by qPCR.

| Kd [1] [nM] | Kd [2] [nM] | Kd [3] [nM] | Kd [4] [nM] | Kd [5] [nM] | SMILES | selectivity for certain bromodomains evaluated [6] |
| --- | --- | --- | --- | --- | --- | --- |
| 220 | 45 | 140 | 100 | 1000 | COc1ccc(S(=O)(=O)N2CCOCC2)cc1NC(=O)c1[nH]c(C)c2c1CCCCC2=O [Compound 13, N-(2-methoxy-5-(morpholinosulfonyl)phenyl)-3-methyl-4-oxo-2,4,5,6,7,8-hexahydrocyclohepta[c]pyrrole-1-carboxamide] | – |
| 270 | 130 | 330 | 170 | 620 | Cc1[nH]c(-c2cc(N)ccc2Cl)c2c1C(=O)CCCC2 [Compound 23] | – |
| – | – | – | – | – | CCCc1[nH]c(-c2cc(N)ccc2Cl)c2c1C(=O)CCCC2 [Compound 26, 1-(5-Amino-2-chlorophenyl)-3-propyl-5,6,7,8-tetrahydrocyclohepta[c]pyrrol-4(2H)-one] | higher selectivity for certain bromodomains |
| – | – | – | – | – | CCCCc1[nH]c(-c2cc(N)ccc2Cl)c2c1C(=O)CCCC2 [Compound 27, 1-(5-Amino-2-chlorophenyl)-3-butyl-5,6,7,8-tetrahydrocyclohepta[c]pyrrol-4(2H)-one] | higher selectivity for certain bromodomains |

From US20220055989A1, “CONDENSED PYRROLES AS NOVEL BROMODOMAIN INHIBITORS” (ALBERT LUDWING UNIVERSITÄT FREIBURG, priority 2018, published 2022)
